# Assay results taken from US20110135750A1, “ANTI-ALLERGEN COMBINATIONS OF CALCIUM AND LANTHANUM” (priority 2008, published 2011).
# Biological target: T1, Der p1 (Dermatophagoides pteronyssinus, UniProt P08176)
# T1 construct: Allergen stock solutions were derived from the extraction of the rearing medium of dust mites Dermatophagoides pteronyssinus; from tissue; host or cells: rearing medium of dust mites Dermatophagoides pteronyssinus (crude extract)
# T1 sequence (P08176 99-320): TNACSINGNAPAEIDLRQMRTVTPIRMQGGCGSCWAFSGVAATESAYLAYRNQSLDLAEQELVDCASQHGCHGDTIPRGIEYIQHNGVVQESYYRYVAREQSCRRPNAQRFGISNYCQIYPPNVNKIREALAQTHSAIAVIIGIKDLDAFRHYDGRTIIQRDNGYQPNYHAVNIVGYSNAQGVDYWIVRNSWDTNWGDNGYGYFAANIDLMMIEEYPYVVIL
# Experiment: Allergen denaturing efficacy on Der p1-treated tissue, ELISA
# Assay type: biochemical
# Details: for Efficacy (%) on Der p1: tissue treated at 100 ml/m^2
# Procedure: Allergen stock solutions were derived from the extraction of the rearing medium of dust mites Dermatophagoides pteronyssinus or by the extraction of cat exposed tissues. Allergens were always stored or diluted in Phosphate Buffered Saline (PBS) of pH 7.4 containing NaCl 8 g/L, KH2PO4 0.2 g/L, Na2HPO4 1.15 g/L, KCl 0.2 g/L, Tween 20 0.5 ml/L.
# A tissue (Triconet: 40% PP, 60% Viscose, 0.7 mm thickness, 70 g/m^2) was treated with known amount of antigen, allowed to dry overnight and then treated with the allergen denaturing composition at 100 ml/m^2. The next day, the tissue was extracted in 5 ml of PBS and the concentration of allergen was determined by ELISA. ELISA tests were carried out according to the instructions of the commercially available test kits with monoclonal antibodies (www.inbio.com).
# Briefly, anti-Der p1 or anti-Fel d1 monoclonal antibodies are diluted 1/1000 in 50 mM carbonate-bicarbonate buffer, pH 9.6. and 100 μl is coated on a polystyrene microtiter well and allowed to incubate overnight at 4° C. Then, wells are washed 3 times with PBS containing 0.05% Tween 20, pH 7.4. (further called: wash step with PBS-T). After incubation with 100 μl 1% BSA in PBS-T for 30 minutes at room temperature, another wash step is executed. Then, 100 μl of diluted allergen standard or test samples is added to each well and incubated for 1 hour at room temperature. After a wash step, 100 μl per well of 1/1000 diluted biotinylated anti-Der p1 or anti-Fel d1 monoclonal antibody is added and incubated for 1 hour at room temperature. Then, another wash step is executed and 100 μl/well of a Streptavidin-Peroxidase (Sigma S5512, reconstituted in 1 ml distilled water) is added as a 1/1000 dilution in PBS-T and incubated for 30 minutes at room temperature. After a final wash step, 100 μl/well of 1 mM ABTS (2,2′-azino-bis(3-ethylbenzthiazoline-6-sulfonic acid)diammonium salt) in 70 mM citrate phosphate buffer, pH 4.2, containing 0.03% H2O2, is added. The assay was allowed to develop after dark green colouring of the highest concentration of the allergen standard. Optical density was read at 405 nm.
# Standard allergen dilution curves were taken for calibration. The range in which allergens can be quantified is 0.2-20 ppb for Fel d1 and from 1-100 ppb for Der p1. Dilutions were made until the concentration was in the right order of magnitude to enable quantification and percent reduction by the allergen denaturing composition.
# Possible synergy was investigated using Limpet's formula (Richter, D. L., Pestic. Sci. 1987, 19: 309-315): […]
# where Ec is the expected additive response, or calculated activity, X is the observed percentage control when component A is applied alone and Y is the observed percentage control when component B is applied alone. Synergy was considered to occur when the observed effect, or measured activity, of a combination of both components was greater than the corresponding Ec value.
Structure (SMILES),Efficacy (%) on Der p1 (Ca^2+ 0.05% alone) [%],Efficacy (%) on Der p1 (Ca^2+ 0.125% alone) [%],Efficacy (%) on Der p1 (Ca^2+ 0.5% alone) [%],"Efficacy (%) Expected value (Ec) (Ca^2+ 1%, La^3+ 0%) [%]","Efficacy (%) Measured value (Ca^2+ 1%, La^3+ 0%) [%]","Efficacy (%) Synergy (measured minus expected) (Ca^2+ 1%, La^3+ 0%) [%]",Efficacy (%) on Der p1 (Ca^2+ 2.0% alone) [%],Efficacy (%) on Der p1 (La^3+ 0.01% alone) [%],Efficacy (%) on Der p1 (La^3+ 0.05% alone) [%],Efficacy (%) on Der p1 (La^3+ 0.2% alone) [%],Efficacy (%) on Der p1 (La^3+ 1.0% alone) [%]
[Ca+2] [Ca^2+],0,0,28,46,46,0,96,,,,
[La+3] [La^3+],,,,,,,,12,0,0,100
